Among the data in PubChem BioAssay AID192 (DTP/NCI, 2004) are T/C values, retold here.

The experiment concerns BDF1 mice, B16 melanoma ip, median survival T/C. Nature of the experiment: NCI In Vivo Anticancer Drug Screen. Data for tumor model B16 Melanoma (intraperitoneal) in B6D2F1 (BDF1) mice. The settings on record: endpoint: median survival time, higher = longer survival. A digest of the protocol: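 Values are ratios of treated (T) to vehicle-control (C) measurements of survival or tumor size in tumor-bearing mice.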

Where [1] appears, read: dose: 100.0 mg/kg/injection, schedule: Q04DX003 (ip), vehicle: saline with Tween-80.
The mark [2] stands for this setting: dose: 200.0 mg/kg/injection, schedule: Q04DX003 (ip), vehicle: saline with Tween-80.
Setting [3] is: dose: 400.0 mg/kg/injection, schedule: Q01DX009 (ip), vehicle: saline.
Setting [4] is: dose: 400.0 mg/kg/injection, schedule: Q04DX003 (ip), vehicle: saline with Tween-80.
The mark [5] stands for this setting: dose: 100.0 mg/kg/injection, schedule: Q04DX003 (ip), vehicle: Klucel (hydroxypropylcellulose) (HPC).
[6] abbreviates: dose: 200.0 mg/kg/injection, schedule: Q04DX003 (ip), vehicle: Klucel (hydroxypropylcellulose) (HPC).
[7] abbreviates: dose: 400.0 mg/kg/injection, schedule: Q04DX003 (ip), vehicle: Klucel (hydroxypropylcellulose) (HPC).
Setting [8] is: dose: 50.0 mg/kg/injection, schedule: Q01DX009 (ip), vehicle: Klucel (hydroxypropylcellulose) (HPC).
[9] abbreviates: dose: 100.0 mg/kg/injection, schedule: Q01DX009 (ip), vehicle: Klucel (hydroxypropylcellulose) (HPC).
[10] abbreviates: dose: 200.0 mg/kg/injection, schedule: Q01DX009 (ip), vehicle: Klucel (hydroxypropylcellulose) (HPC).
The mark [11] stands for this setting: dose: 12.5 mg/kg/injection, schedule: Q01DX009 (ip), vehicle: saline with Tween-80.
Where [12] appears, read: dose: 25.0 mg/kg/injection, schedule: Q01DX009 (ip), vehicle: saline with Tween-80.
The mark [13] stands for this setting: dose: 50.0 mg/kg/injection, schedule: Q01DX009 (ip), vehicle: saline with Tween-80.
[14] abbreviates: dose: 100.0 mg/kg/injection, schedule: Q01DX009 (ip), vehicle: saline with Tween-80.
[15] abbreviates: dose: 200.0 mg/kg/injection, schedule: Q01DX009 (ip), vehicle: saline with Tween-80.
Where [16] appears, read: dose: 12.5 mg/kg/injection, schedule: Q01DX009 (ip), vehicle: Klucel (hydroxypropylcellulose) (HPC).
Setting [17] is: dose: 400.0 mg/kg/injection, schedule: Q01DX009 (ip), vehicle: Klucel (hydroxypropylcellulose) (HPC).
Setting [18] is: dose: 25.0 mg/kg/injection, schedule: Q01DX009 (ip), vehicle: Klucel (hydroxypropylcellulose) (HPC).

Values joined by “and” are separate entries in the source; they are usually repeats but may differ in a detail not shown here. Identical values can stand only once. Inconclusive results and toxic doses are left out.

Consider `CC#CCOCC1CN(c2ccccc2)C(=O)O1` (stereo not given), for which the T/C by setting is: (dose: 25.0 mg/kg/injection, schedule: Q01DX009 (ip), vehicle: saline) 102 % of control; (dose: 50.0 mg/kg/injection, schedule: Q01DX009 (ip), vehicle: saline) 97 % of control; (dose: 100.0 mg/kg/injection, schedule: Q01DX009 (ip), vehicle: saline) 102 % of control; under setting [1], 97 % of control; (dose: 200.0 mg/kg/injection, schedule: Q01DX009 (ip), vehicle: saline) 100 % of control; under setting [2], 94 % of control. Further, the T/C reads like this: under setting [3], 97 % of control; under setting [4], 94 % of control.

For `CCCCCCNC(=O)Nc1cccc(Cl)c1C`, the T/C is, setting by setting: under setting [5], 92 % of control; under setting [6], 90 % of control; under setting [7], 87 % of control.

For `O=C1NC(C2CCC3CN32)C(=O)NC1C1CCC2CN21` (stereo not given), the T/C is, setting by setting: (dose: 0.05 mg/kg/injection, schedule: Q01DX009 (ip), vehicle: saline) 102 % of control; (dose: 0.1 mg/kg/injection, schedule: Q01DX009 (ip), vehicle: saline) 107 % of control; (dose: 0.2 mg/kg/injection, schedule: Q01DX009 (ip), vehicle: saline) 108 % of control; (dose: 0.4 mg/kg/injection, schedule: Q01DX009 (ip), vehicle: saline) 115 % of control.

Regarding `C[NH-].C[NH-].[Cl][Pt+2][Cl]`, the T/C (dose: 0.39 mg/kg/injection, schedule: Q01DX009 (ip), vehicle: saline) is 102 % of control; the T/C (dose: 0.78 mg/kg/injection, schedule: Q01DX009 (ip), vehicle: saline) was 104 % of control; the T/C (dose: 1.56 mg/kg/injection, schedule: Q01DX009 (ip), vehicle: saline) is 112 % of control; the T/C (dose: 3.13 mg/kg/injection, schedule: Q01DX009 (ip), vehicle: saline) is 121 % of control; the T/C (dose: 8.0 mg/kg/injection, schedule: Q01DX009 (ip), vehicle: saline with Tween-80) is 154 % of control.

For the compound `N#CCCCc1ccccc1`, the T/C is, setting by setting: under setting [8], 112 % of control; under setting [9], 106 % of control.

Regarding `NCCN`, the T/C runs as follows: (dose: 177.0 mg/kg/injection, schedule: Q01DX009 (ip), vehicle: saline) 115 % of control; (dose: 266.0 mg/kg/injection, schedule: Q01DX009 (ip), vehicle: saline) 96 % of control; under setting [3], 105 % of control.

Turning to `CCSc1nc2nccnc2c(=O)[nH]1`, the T/C under setting [9] is 102 % of control and the T/C under setting [10] was 97 % of control.

Take `ClC1CCC[N-]C1.ClC1CCC[N-]C1.O=C(O)CC(=O)O.[Pt+2]` (stereo not given): the T/C is, setting by setting: under setting [11], 96 % of control; under setting [12], 95 % of control; under setting [13], 94 % of control; under setting [14], 93 % of control; under setting [15], 89 % of control.

Take `CCN(CC)CCOc1ccc(Br)cc1`: the T/C under setting [16] was 96 % of control; the T/C under setting [8] was 87 % of control and 98 % of control.

In the case of `Cc1ccc(N2CSC(=S)N(c3ccc(C)cc3)C2)cc1`, the T/C reads like this: under setting [9], 86 % of control and 109 % of control; under setting [10], 86 % of control and 109 % of control; under setting [17], 102 % of control.

Regarding `C1CCC2[N-]CC3CCCCC3[N-]CC3CCCCC3[N-]CC3CCCCC3[N-]CC2C1.[Cu+2].[O-][Cl+3]([O-])([O-])O` (stereo not given), the T/C was 153 % of control (dose: 3.12 mg/kg/injection, schedule: Q01DX009 (ip), vehicle: Klucel (hydroxypropylcellulose) (HPC)); 161 % of control (dose: 6.25 mg/kg/injection, schedule: Q01DX009 (ip), vehicle: Klucel (hydroxypropylcellulose) (HPC)); 164 % of control under setting [16].

As for `O=C(COc1ccc(Cl)cc1)NCCc1ccccc1`, the T/C was 93 % of control under setting [9], 103 % of control under setting [10] and 90 % of control under setting [17].

On to `C=C1Sc2ccccc2N1C`, for which the T/C was 96 % of control under setting [16] and 94 % of control under setting [18].

On to `CC(=O)OC12CC[N+]3(C)CCCCC3C1=Nc1ccccc12` (stereo not given), for which the T/C reads like this: under setting [16], 109 % of control; under setting [18], 104 % of control.

`c1ccc2c(NCCCCCCCCNc3c4ccccc4nc4ccccc34)c3ccccc3nc2c1`: the T/C is 151 % of control and 159 % of control (dose: 5.0 mg/kg/injection, schedule: Q01DX009 (ip), vehicle: Klucel (hydroxypropylcellulose) (HPC)); 164 % of control (dose: 10.0 mg/kg/injection, schedule: Q01DX009 (ip), vehicle: Klucel (hydroxypropylcellulose) (HPC)); 156 % of control (dose: 20.0 mg/kg/injection, schedule: Q01DX009 (ip), vehicle: Klucel (hydroxypropylcellulose) (HPC)).

Regarding `COc1cccc2c1C(=N)c1c(O)c3c(c(O)c1C2=O)C[C@@](O)(C(C)=O)C[C@@H]3OC1CC(N)C(O)C(C)O1` (stereo not given in full), the T/C runs as follows: (dose: 1.0 mg/kg/injection, schedule: Q01DX009 (ip), vehicle: water) 177 % of control; (dose: 1.56 mg/kg/injection, schedule: Q01DX001 (ip), vehicle: water) 163 % of control; (dose: 2.0 mg/kg/injection, schedule: Q01DX009 (ip), vehicle: water) 205 % of control; (dose: 3.13 mg/kg/injection, schedule: Q01DX001 (ip), vehicle: water) 159 % of control; (dose: 4.0 mg/kg/injection, schedule: Q01DX009 (ip), vehicle: water) 201 % of control; (dose: 6.25 mg/kg/injection, schedule: Q01DX001 (ip), vehicle: water) 166 % of control and 168 % of control and 185 % of control. The T/C reads like this: (dose: 12.0 mg/kg/injection, schedule: Q01DX001 (ip), vehicle: water) 94 % of control; (dose: 12.5 mg/kg/injection, schedule: Q01DX001 (ip), vehicle: water) 164 % of control and 201 % of control; (dose: 20.0 mg/kg/injection, schedule: Q01DX001 (ip), vehicle: water) 95 % of control.

Turning to `CSc1ccc2c(c1)C(N1CCN(C)CC1)Cc1ccccc1S2` (stereo not given), the T/C is 109 % of control (dose: 1.56 mg/kg/injection, schedule: Q01DX009 (ip), vehicle: saline with Tween-80) and 110 % of control (dose: 3.12 mg/kg/injection, schedule: Q01DX009 (ip), vehicle: saline with Tween-80).

For the compound `CCOC(=O)NC(C(=O)OC)C(=O)OC`, the T/C was 95 % of control under setting [5]; 93 % of control under setting [10]; 97 % of control under setting [6]; 87 % of control under setting [17]; 90 % of control under setting [7].

In the case of `O=C(O)/C(=C/c1ccc(O)cc1)c1ccccc1`, the T/C is, setting by setting: under setting [14], 110 % of control; under setting [15], 100 % of control; (dose: 400.0 mg/kg/injection, schedule: Q01DX009 (ip), vehicle: saline with Tween-80) 92 % of control.

Regarding `CN1C(=O)CC2(CCN(CCCC(=O)c3ccc(F)cc3)CC2)C1=O`, the T/C is 99 % of control (dose: 6.25 mg/kg/injection, schedule: Q01DX009 (ip), vehicle: saline with Tween-80); 109 % of control under setting [11]; 104 % of control under setting [12]; 95 % of control under setting [13].

As to `C#CC1(OCC2CN(c3ccccc3)C(=O)O2)CCCCC1` (stereo not given), the T/C is, setting by setting: under setting [18], 93 % of control; under setting [8], 95 % of control; under setting [9], 95 % of control; under setting [1], 97 % of control; under setting [10], 102 % of control; under setting [2], 102 % of control. Further, the T/C runs as follows: under setting [17], 91 % of control; under setting [4], 100 % of control.

Consider `CCCCCC(=O)c1ccc(OCCCN2CCN(C(=O)OCC)CC2)cc1`, for which the T/C is, setting by setting: under setting [14], 98 % of control; under setting [15], 87 % of control.

Regarding `O=[n+]1ccn2cc3ccccc3cc2c1`, the T/C reads like this: (dose: 3.75 mg/kg/injection, schedule: Q01DX009 (ip), vehicle: saline) 102 % of control; (dose: 7.5 mg/kg/injection, schedule: Q01DX009 (ip), vehicle: saline) 105 % of control.
